According to patent US20250223268A1, “4-Methylsulfonylbenzamide Compound, Preparation Method, Herbicidal Composition And Use” (Jiangsu Flag Chemical Industry Co., Ltd., priority 2022, published 2025):

Columns and labels:
Assay type in all cases: in vivo
Echinochloa crusgalli [1] = assay: Greenhouse herbicidal activity and crop safety comparison (Test Example 2)
Outline: (§1)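 Fresh weight inhibition, banded into grades A to E (E <20%), was rated 14-21 days after foliar spraying of 3-6 leaf plants, or 14-30 days after a soil spray applied 24 h post-sowing.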

[2] = tested on: Oryza sativa subsp. indica; assay: as above
Outline: as §1

[3] = tested on: Oryza sativa subsp. japonica; assay: as above
Outline: as §1

Leptochloa chinensis [4] = assay: as above
Outline: as §1

Echinochloa crusgalli [5] = assay: Greenhouse herbicidal activity assay, post-emergence; details: Post-emergence test, rate 150 g a.i./hm^2, grade by fresh weight inhibition rate
Outline: (§2)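 Graded A (≥80%) to E (<20%) by fresh weight inhibition, read 14-21 days after spraying. Plants were pot-grown in a growth chamber and received foliar application at the 3-6 leaf stage, being air-dried and returned to the chamber afterwards.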

Eclipta prostrata = assay: as above; details: Post-emergence test, rate 150 g a.i./hm^2, grade by fresh weight inhibition rate
Outline: as §2

Leptochloa chinensis [6] = assay: as above; details: Post-emergence test, rate 150 g a.i./hm^2, grade by fresh weight inhibition rate
Outline: as §2

Digitaria sanguinalis = assay: as above; details: Post-emergence test, rate 150 g a.i./hm^2, grade by fresh weight inhibition rate
Outline: as §2

Cyperus iria = assay: as above; details: Post-emergence test, rate 150 g a.i./hm^2, grade by fresh weight inhibition rate
Outline: as §2

## CCCCS(=O)(=O)c1c(S(C)(=O)=O)ccc(C(=O)Nc2nnc(C)o2)c1Cl [Compound 3-15]
Echinochloa crusgalli [1]; Rate 250 g/ha
  Echinochloa crusgalli, control efficacy grading (fresh weight inhibition rate): A (Fresh weight inhibition rate≥80% to 100%)
[2]; Rate 250 g/ha
  Oryza sativa subsp. indica, grading of fresh weight inhibition rate (crop safety): E (Fresh weight inhibition rate<20%)
[3]; Rate 250 g/ha
  Oryza sativa subsp. japonica, grading of fresh weight inhibition rate (crop safety): E (Fresh weight inhibition rate<20%)
Leptochloa chinensis [4]; Rate 250 g/ha
  Leptochloa chinensis, control efficacy grading (fresh weight inhibition rate): A (Fresh weight inhibition rate≥80% to 100%)
Echinochloa crusgalli [5]
  Control efficacy grade, Echinochloa crusgalli: B (Fresh weight inhibition rate≥260% to <80%)
Eclipta prostrata
  Control efficacy grade, Eclipta prostrata: A (Fresh weight inhibition rate≥80% to 100%)
Leptochloa chinensis [6]
  Control efficacy grade, Leptochloa chinensis: B (Fresh weight inhibition rate≥260% to <80%)
Digitaria sanguinalis
  Control efficacy grade, Digitaria sanguinalis: B (Fresh weight inhibition rate≥260% to <80%)
Cyperus iria
  Control efficacy grade, Cyperus iria: B (Fresh weight inhibition rate≥260% to <80%)

## CCc1nnc(NC(=O)c2ccc(S(C)(=O)=O)c(S(=O)(=O)C3CCC3)c2Cl)o1 [Compound 3-428]
Echinochloa crusgalli [1]; Rate 150 g/ha
  Echinochloa crusgalli, control efficacy grading (fresh weight inhibition rate): A (Fresh weight inhibition rate≥80% to 100%)
[2]; Rate 150 g/ha
  Oryza sativa subsp. indica, grading of fresh weight inhibition rate (crop safety): E (Fresh weight inhibition rate<20%)
[3]; Rate 150 g/ha
  Oryza sativa subsp. japonica, grading of fresh weight inhibition rate (crop safety): E (Fresh weight inhibition rate<20%)
Leptochloa chinensis [4]; Rate 150 g/ha
  Leptochloa chinensis, control efficacy grading (fresh weight inhibition rate): A (Fresh weight inhibition rate≥80% to 100%)
Echinochloa crusgalli [5]
  Control efficacy grade, Echinochloa crusgalli: A (Fresh weight inhibition rate≥80% to 100%)
Eclipta prostrata
  Control efficacy grade, Eclipta prostrata: A (Fresh weight inhibition rate≥80% to 100%)
Leptochloa chinensis [6]
  Control efficacy grade, Leptochloa chinensis: A (Fresh weight inhibition rate≥80% to 100%)
Digitaria sanguinalis
  Control efficacy grade, Digitaria sanguinalis: A (Fresh weight inhibition rate≥80% to 100%)
Cyperus iria
  Control efficacy grade, Cyperus iria: A (Fresh weight inhibition rate≥80% to 100%)

## CCc1nnc(NC(=O)c2ccc(S(C)(=O)=O)c(S(=O)(=O)C3CCCC3)c2Cl)o1 [Compound 3-433]
Echinochloa crusgalli [1]; Rate 150 g/ha
  Echinochloa crusgalli, control efficacy grading (fresh weight inhibition rate): A (Fresh weight inhibition rate≥80% to 100%)
[2]; Rate 150 g/ha
  Oryza sativa subsp. indica, grading of fresh weight inhibition rate (crop safety): E (Fresh weight inhibition rate<20%)
[3]; Rate 150 g/ha
  Oryza sativa subsp. japonica, grading of fresh weight inhibition rate (crop safety): E (Fresh weight inhibition rate<20%)
Leptochloa chinensis [4]; Rate 150 g/ha
  Leptochloa chinensis, control efficacy grading (fresh weight inhibition rate): A (Fresh weight inhibition rate≥80% to 100%)
Echinochloa crusgalli [5]
  Control efficacy grade, Echinochloa crusgalli: A (Fresh weight inhibition rate≥80% to 100%)
Eclipta prostrata
  Control efficacy grade, Eclipta prostrata: A (Fresh weight inhibition rate≥80% to 100%)
Leptochloa chinensis [6]
  Control efficacy grade, Leptochloa chinensis: A (Fresh weight inhibition rate≥80% to 100%)
Digitaria sanguinalis
  Control efficacy grade, Digitaria sanguinalis: A (Fresh weight inhibition rate≥80% to 100%)
Cyperus iria
  Control efficacy grade, Cyperus iria: A (Fresh weight inhibition rate≥80% to 100%)

## CS(=O)(=O)c1ccc(C(=O)Nc2nnco2)c(Cl)c1S(=O)(=O)C1CC1 [Compound 3-307]
Echinochloa crusgalli [1]; Rate 150 g/ha
  Echinochloa crusgalli, control efficacy grading (fresh weight inhibition rate): A (Fresh weight inhibition rate≥80% to 100%)
[2]; Rate 150 g/ha
  Oryza sativa subsp. indica, grading of fresh weight inhibition rate (crop safety): E (Fresh weight inhibition rate<20%)
[3]; Rate 150 g/ha
  Oryza sativa subsp. japonica, grading of fresh weight inhibition rate (crop safety): E (Fresh weight inhibition rate<20%)
Leptochloa chinensis [4]; Rate 150 g/ha
  Leptochloa chinensis, control efficacy grading (fresh weight inhibition rate): A (Fresh weight inhibition rate≥80% to 100%)
Echinochloa crusgalli [5]
  Control efficacy grade, Echinochloa crusgalli: A (Fresh weight inhibition rate≥80% to 100%)
Eclipta prostrata
  Control efficacy grade, Eclipta prostrata: A (Fresh weight inhibition rate≥80% to 100%)
Leptochloa chinensis [6]
  Control efficacy grade, Leptochloa chinensis: A (Fresh weight inhibition rate≥80% to 100%)
Digitaria sanguinalis
  Control efficacy grade, Digitaria sanguinalis: A (Fresh weight inhibition rate≥80% to 100%)
Cyperus iria
  Control efficacy grade, Cyperus iria: A (Fresh weight inhibition rate≥80% to 100%)

## C=CCS(=O)(=O)c1c(S(C)(=O)=O)ccc(C(=O)Nc2nnc(C3CC3)o2)c1Cl [Compound 3-690]
Echinochloa crusgalli [1]; Rate 150 g/ha
  Echinochloa crusgalli, control efficacy grading (fresh weight inhibition rate): A (Fresh weight inhibition rate≥80% to 100%)
[2]; Rate 150 g/ha
  Oryza sativa subsp. indica, grading of fresh weight inhibition rate (crop safety): E (Fresh weight inhibition rate<20%)
[3]; Rate 150 g/ha
  Oryza sativa subsp. japonica, grading of fresh weight inhibition rate (crop safety): E (Fresh weight inhibition rate<20%)
Leptochloa chinensis [4]; Rate 150 g/ha
  Leptochloa chinensis, control efficacy grading (fresh weight inhibition rate): A (Fresh weight inhibition rate≥80% to 100%)
Echinochloa crusgalli [5]
  Control efficacy grade, Echinochloa crusgalli: A (Fresh weight inhibition rate≥80% to 100%)
Eclipta prostrata
  Control efficacy grade, Eclipta prostrata: A (Fresh weight inhibition rate≥80% to 100%)
Leptochloa chinensis [6]
  Control efficacy grade, Leptochloa chinensis: A (Fresh weight inhibition rate≥80% to 100%)
Digitaria sanguinalis
  Control efficacy grade, Digitaria sanguinalis: B (Fresh weight inhibition rate≥260% to <80%)
Cyperus iria
  Control efficacy grade, Cyperus iria: A (Fresh weight inhibition rate≥80% to 100%)

## Cc1nnc(NC(=O)c2ccc(S(C)(=O)=O)c(S(=O)(=O)CC3CC3)c2Cl)o1 [Compound 3-41]
Echinochloa crusgalli [1]; Rate 150 g/ha
  Echinochloa crusgalli, control efficacy grading (fresh weight inhibition rate): A (Fresh weight inhibition rate≥80% to 100%)
[2]; Rate 150 g/ha
  Oryza sativa subsp. indica, grading of fresh weight inhibition rate (crop safety): E (Fresh weight inhibition rate<20%)
[3]; Rate 150 g/ha
  Oryza sativa subsp. japonica, grading of fresh weight inhibition rate (crop safety): E (Fresh weight inhibition rate<20%)
Leptochloa chinensis [4]; Rate 150 g/ha
  Leptochloa chinensis, control efficacy grading (fresh weight inhibition rate): A (Fresh weight inhibition rate≥80% to 100%)
Echinochloa crusgalli [5]
  Control efficacy grade, Echinochloa crusgalli: A (Fresh weight inhibition rate≥80% to 100%)
Eclipta prostrata
  Control efficacy grade, Eclipta prostrata: A (Fresh weight inhibition rate≥80% to 100%)
Leptochloa chinensis [6]
  Control efficacy grade, Leptochloa chinensis: A (Fresh weight inhibition rate≥80% to 100%)
Digitaria sanguinalis
  Control efficacy grade, Digitaria sanguinalis: A (Fresh weight inhibition rate≥80% to 100%)
Cyperus iria
  Control efficacy grade, Cyperus iria: A (Fresh weight inhibition rate≥80% to 100%)

## Cc1nnc(NC(=O)c2ccc(S(C)(=O)=O)c(S(=O)(=O)C(C)C)c2Cl)o1 [Compound 3-10, 2-chloro-3-(isopropylsulfonyl)-N-(5-methyl-1,3,4-oxadiazol-2-yl)-4-(methylsulfonyl)benzamide]
Echinochloa crusgalli [1]; Echinochloa crus-galli, Rate 150 g/ha, read-out: Echinochloa crusgalli, control efficacy grading (fresh weight inhibition rate)
  inhibition at 150 g/ha: 80 to 100%
[2]; Rate 150 g/ha
  Oryza sativa subsp. indica, grading of fresh weight inhibition rate (crop safety): E (Fresh weight inhibition rate<20%)
[3]; Rate 150 g/ha
  Oryza sativa subsp. japonica, grading of fresh weight inhibition rate (crop safety): E (Fresh weight inhibition rate<20%)
Leptochloa chinensis [4]; Dinebra chinensis, Rate 150 g/ha, read-out: Leptochloa chinensis, control efficacy grading (fresh weight inhibition rate)
  inhibition at 150 g/ha: 80 to 100%
Echinochloa crusgalli [5]; Echinochloa crus-galli, read-out: Control efficacy grade, Echinochloa crusgalli
  pest or weed control at 150 g/ha: 80 to 100%
Eclipta prostrata; Eclipta prostrata, read-out: Control efficacy grade, Eclipta prostrata
  pest or weed control at 150 g/ha: 80 to 100%
Leptochloa chinensis [6]; Dinebra chinensis, read-out: Control efficacy grade, Leptochloa chinensis
  pest or weed control at 150 g/ha: 80 to 100%
Digitaria sanguinalis; Digitaria sanguinalis, read-out: Control efficacy grade, Digitaria sanguinalis
  pest or weed control at 150 g/ha: 80 to 100%
Cyperus iria; Cyperus iria, read-out: Control efficacy grade, Cyperus iria
  pest or weed control at 150 g/ha: 80 to 100%

## CCCS(=O)(=O)c1c(S(C)(=O)=O)ccc(C(=O)Nc2nnc(C)o2)c1Cl [Compound 3-5]
Echinochloa crusgalli [1]; Rate 150 g/ha
  Echinochloa crusgalli, control efficacy grading (fresh weight inhibition rate): A (Fresh weight inhibition rate≥80% to 100%)
[2]; Rate 150 g/ha
  Oryza sativa subsp. indica, grading of fresh weight inhibition rate (crop safety): E (Fresh weight inhibition rate<20%)
[3]; Rate 150 g/ha
  Oryza sativa subsp. japonica, grading of fresh weight inhibition rate (crop safety): E (Fresh weight inhibition rate<20%)
Leptochloa chinensis [4]; Rate 150 g/ha
  Leptochloa chinensis, control efficacy grading (fresh weight inhibition rate): A (Fresh weight inhibition rate≥80% to 100%)
Echinochloa crusgalli [5]
  Control efficacy grade, Echinochloa crusgalli: A (Fresh weight inhibition rate≥80% to 100%)
Eclipta prostrata
  Control efficacy grade, Eclipta prostrata: A (Fresh weight inhibition rate≥80% to 100%)
Leptochloa chinensis [6]
  Control efficacy grade, Leptochloa chinensis: A (Fresh weight inhibition rate≥80% to 100%)
Digitaria sanguinalis
  Control efficacy grade, Digitaria sanguinalis: A (Fresh weight inhibition rate≥80% to 100%)
Cyperus iria
  Control efficacy grade, Cyperus iria: A (Fresh weight inhibition rate≥80% to 100%)

## CC(C)S(=O)(=O)c1c(S(C)(=O)=O)ccc(C(=O)Nc2nnco2)c1Cl [Compound 3-276]
Echinochloa crusgalli [1]; Rate 150 g/ha
  Echinochloa crusgalli, control efficacy grading (fresh weight inhibition rate): A (Fresh weight inhibition rate≥80% to 100%)
[2]; Rate 150 g/ha
  Oryza sativa subsp. indica, grading of fresh weight inhibition rate (crop safety): E (Fresh weight inhibition rate<20%)
[3]; Rate 150 g/ha
  Oryza sativa subsp. japonica, grading of fresh weight inhibition rate (crop safety): E (Fresh weight inhibition rate<20%)
Leptochloa chinensis [4]; Rate 150 g/ha
  Leptochloa chinensis, control efficacy grading (fresh weight inhibition rate): A (Fresh weight inhibition rate≥80% to 100%)
Echinochloa crusgalli [5]
  Control efficacy grade, Echinochloa crusgalli: A (Fresh weight inhibition rate≥80% to 100%)
Eclipta prostrata
  Control efficacy grade, Eclipta prostrata: A (Fresh weight inhibition rate≥80% to 100%)
Leptochloa chinensis [6]
  Control efficacy grade, Leptochloa chinensis: A (Fresh weight inhibition rate≥80% to 100%)
Digitaria sanguinalis
  Control efficacy grade, Digitaria sanguinalis: A (Fresh weight inhibition rate≥80% to 100%)
Cyperus iria
  Control efficacy grade, Cyperus iria: A (Fresh weight inhibition rate≥80% to 100%)

## Cc1nnc(NC(=O)c2ccc(S(C)(=O)=O)c(S(=O)(=O)C3CC3)c2Cl)o1 [Compound 3-81]
Echinochloa crusgalli [1]; Rate 150 g/ha
  Echinochloa crusgalli, control efficacy grading (fresh weight inhibition rate): A (Fresh weight inhibition rate≥80% to 100%)
[2]; Rate 150 g/ha
  Oryza sativa subsp. indica, grading of fresh weight inhibition rate (crop safety): E (Fresh weight inhibition rate<20%)
[3]; Rate 150 g/ha
  Oryza sativa subsp. japonica, grading of fresh weight inhibition rate (crop safety): E (Fresh weight inhibition rate<20%)
Leptochloa chinensis [4]; Rate 150 g/ha
  Leptochloa chinensis, control efficacy grading (fresh weight inhibition rate): A (Fresh weight inhibition rate≥80% to 100%)
Echinochloa crusgalli [5]
  Control efficacy grade, Echinochloa crusgalli: A (Fresh weight inhibition rate≥80% to 100%)
Eclipta prostrata
  Control efficacy grade, Eclipta prostrata: A (Fresh weight inhibition rate≥80% to 100%)
Leptochloa chinensis [6]
  Control efficacy grade, Leptochloa chinensis: A (Fresh weight inhibition rate≥80% to 100%)
Digitaria sanguinalis
  Control efficacy grade, Digitaria sanguinalis: A (Fresh weight inhibition rate≥80% to 100%)
Cyperus iria
  Control efficacy grade, Cyperus iria: A (Fresh weight inhibition rate≥80% to 100%)
